Values quoted from earlier work as cited in patent publication US6380174B1, “Slime-removing composition for paper manufacture and method of controlling slime using the same” (SK Corporation, priority 1999, dated 2002).

System: slime-causing microorganisms

SMILES: N#CC(Br)(Br)C(N)=O [DBNPA, 2,2-dibromo-3-nitrilepropionamide]
- amount required for early sterilization (after 3 hours): 50 ppm
- amount necessary for sufficient sterilizing activity (after 24 hours): 5 ppm
